Data from publication PMC6193938, “Characterization of a novel AICARFT inhibitor which potently elevates ZMP and has anti-tumor activity in murine models” (Scientific Reports, 2018).
Read-outs that look alike come from different tables or passages of the source.

Columns and labels:
PYK2 = target: T1, PYK2 (Homo sapiens, UniProt Q14289); assay: CEREP protein kinase assay; format: biochemical
T1 construct: purchased CEREP Panlabs (Eurofins)

FGFR3 = target: T2, FGFR3 (Homo sapiens, UniProt P22607); assay: CEREP protein kinase assay; format: biochemical
T2 construct: purchased CEREP Panlabs (Eurofins)

MDA-MB-231met2 = assay: In vitro proliferation assay (Alamar Blue); format: cell-based, human
Method: Cells lines were acquired from cell banks, see supplemental material, grown using the cell banks recommended culture conditions (Supplemental Table 3). In some experiments noted “low folate” the cells were washed and grown in folate free RPMI-1640 media (Gibco #27016-021) supplemented with 5 ml 1 M Hepes, 5 ml 100 mM Na pyruvate, 2.5 mg/ml glucose and 10% defined FBS (Hyclone #SH30070) per 500 mL media for 5–7 days to deplete intracellular folate levels prior to the start of the experiment. Where noted, cells were maintained in complete “high folate” RPMI-1640 media (ATCC #30-2001) with 10% defined FBS to contrast with the low folate conditions. […]
Cells were cultured using recommended culture conditions unless noted otherwise (Supplemental Table 3). Cells were plated, dosed with compound and incubated at 37 °C for approximately 2 doubling times as determined for each cell line. Cell Titer Glo (Promega) assay was used to measure proliferation according to manufacturer’s recommendations by measuring luminescence with Flexstation3 (Molecular Devices) with 500 ms integration time. […]
For a limited number of cell lines, compound dosing was performed under high or low folate conditions with cell viability being determined with Alamar Blue rather than an ATP dependent assay. […] The % inhibition for each sample was calculated and fit as described above.

SW620 (colon) = assay: Low folate & high folate in vitro proliferation assay (Alamar Blue); format: cell-based; conditions: Homo sapiens
Method: (§1) Cells lines were acquired from cell banks, see supplemental material, grown using the cell banks recommended culture conditions (Supplemental Table 3). In some experiments noted “low folate” the cells were washed and grown in folate free RPMI-1640 media (Gibco #27016-021) supplemented with 5 ml 1 M Hepes, 5 ml 100 mM Na pyruvate, 2.5 mg/ml glucose and 10% defined FBS (Hyclone #SH30070) per 500 mL media for 5–7 days to deplete intracellular folate levels prior to the start of the experiment. Where noted, cells were maintained in complete “high folate” RPMI-1640 media (ATCC #30-2001) with 10% defined FBS to contrast with the low folate conditions.
(§2) Cells were cultured using recommended culture conditions unless noted otherwise (Supplemental Table 3). Cells were plated, dosed with compound and incubated at 37 °C for approximately 2 doubling times as determined for each cell line. Cell Titer Glo (Promega) assay was used to measure proliferation according to manufacturer’s recommendations by measuring luminescence with Flexstation3 (Molecular Devices) with 500 ms integration time. […] The % response was fit to a four-parameter logistic equation using ACTIVITYBASE 4.0 to determine the absolute IC50 values.
(§3) For a limited number of cell lines, compound dosing was performed under high or low folate conditions with cell viability being determined with Alamar Blue rather than an ATP dependent assay. Cells were plated and treated as described above. Proliferation was measured using Alamar Blue Cell Viability Reagent (Invitrogen), and read after approximately 1.5–4 hours incubation at 37 °C on the Envision plate reader (Perkin Elmer) with excitation at 570 nm and emission at 585 nm. The % inhibition for each sample was calculated and fit as described above.

A101D (melenoma) = assay: as above; format: cell-based; conditions: Homo sapiens
Method: as §1, §2, §3

NCI-H1299 = assay: as above; format: cell-based; conditions: Homo sapiens
Method: as §1, §2, §3

NCI-H1155 (lung) = assay: as above; format: cell-based; conditions: Homo sapiens
Method: as §1, §2, §3

NCI-H1993 (lung) = assay: as above; format: cell-based; conditions: Homo sapiens
Method: as §1, §2, §3

A549 (lung) = assay: as above; format: cell-based; conditions: Homo sapiens, low folate RPMI media
Method: as §1, §2, §3

NCI-H1437 (lung) = assay: as above; format: cell-based; conditions: Homo sapiens
Method: as §1, §2, §3

MDA-MB-231 (mammary) = assay: as above; format: cell-based; conditions: Homo sapiens
Method: as §1, §2, §3

SNU-16 (gastric) = assay: as above; format: cell-based; conditions: Homo sapiens
Method: as §1, §2, §3

MIA PaCa-2 (pancreas) = assay: as above; format: cell-based; conditions: Homo sapiens
Method: as §1, §2, §3

HCT 116 (colon) = assay: as above; format: cell-based; conditions: Homo sapiens
Method: as §1, §2, §3

PDK1 = target: T3, PDK1 (Homo sapiens, UniProt O15530); assay: CEREP protein kinase assay; format: biochemical
T3 construct: purchased CEREP Panlabs (Eurofins)
T3 sequence (O15530 1-556): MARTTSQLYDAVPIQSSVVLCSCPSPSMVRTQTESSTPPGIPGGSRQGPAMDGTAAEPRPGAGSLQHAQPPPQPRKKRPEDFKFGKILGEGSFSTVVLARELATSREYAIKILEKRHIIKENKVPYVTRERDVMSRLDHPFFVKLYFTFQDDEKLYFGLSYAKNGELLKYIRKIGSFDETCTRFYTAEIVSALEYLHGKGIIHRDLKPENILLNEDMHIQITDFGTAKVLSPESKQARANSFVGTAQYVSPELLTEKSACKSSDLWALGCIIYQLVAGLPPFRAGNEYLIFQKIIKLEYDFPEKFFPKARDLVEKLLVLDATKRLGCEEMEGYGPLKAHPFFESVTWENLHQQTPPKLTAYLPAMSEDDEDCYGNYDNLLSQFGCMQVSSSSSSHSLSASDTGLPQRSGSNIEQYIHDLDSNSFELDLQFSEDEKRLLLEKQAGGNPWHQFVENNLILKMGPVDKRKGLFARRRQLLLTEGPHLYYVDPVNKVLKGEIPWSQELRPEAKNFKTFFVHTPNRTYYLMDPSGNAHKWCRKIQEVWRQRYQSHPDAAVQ

NCI-H460 xenografts = assay: Pharmacodynamic response of tumor metabolites, single PO dose, low folate chow; format: in vivo, mouse
From the text: Figure 4 Pharmacodynamic response of ZMP (purple), AICAR (blue), […] (green), dUMP (red), AMP (aqua) & GMP (orange) metabolites in tumors following a single PO dose of LSN3213128 in athymic nude mice.

RSK1 = target: T4, RSK1 (Homo sapiens, UniProt Q15418); assay: CEREP protein kinase assay; format: biochemical
T4 construct: purchased CEREP Panlabs (Eurofins)

[1] = RPMI media, read-out: Alamar Blue GI50 Regular folate
[2] = low folate RPMI media, read-out: Alamar Blue GI50 Low folate

T2 sequence (P22607 23-806): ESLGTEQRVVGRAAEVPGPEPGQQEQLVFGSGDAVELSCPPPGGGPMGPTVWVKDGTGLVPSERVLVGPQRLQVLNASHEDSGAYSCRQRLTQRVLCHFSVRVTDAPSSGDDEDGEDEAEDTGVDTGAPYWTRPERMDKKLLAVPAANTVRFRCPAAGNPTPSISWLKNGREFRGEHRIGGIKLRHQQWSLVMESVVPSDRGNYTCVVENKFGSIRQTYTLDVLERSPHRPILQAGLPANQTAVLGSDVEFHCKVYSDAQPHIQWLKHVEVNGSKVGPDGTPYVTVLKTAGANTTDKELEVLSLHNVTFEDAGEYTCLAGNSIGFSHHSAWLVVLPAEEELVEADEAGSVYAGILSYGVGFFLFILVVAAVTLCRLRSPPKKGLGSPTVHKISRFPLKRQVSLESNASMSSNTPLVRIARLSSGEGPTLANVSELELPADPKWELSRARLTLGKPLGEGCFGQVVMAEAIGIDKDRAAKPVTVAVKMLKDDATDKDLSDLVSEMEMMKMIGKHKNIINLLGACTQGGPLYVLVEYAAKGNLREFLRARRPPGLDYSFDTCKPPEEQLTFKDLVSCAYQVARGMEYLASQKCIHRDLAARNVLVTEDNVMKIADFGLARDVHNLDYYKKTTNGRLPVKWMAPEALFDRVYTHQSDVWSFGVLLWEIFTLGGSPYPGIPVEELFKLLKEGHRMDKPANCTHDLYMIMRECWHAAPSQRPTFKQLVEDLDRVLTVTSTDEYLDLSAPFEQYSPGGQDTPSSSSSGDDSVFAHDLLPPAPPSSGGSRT
T4 sequence (Q15418 whole entry): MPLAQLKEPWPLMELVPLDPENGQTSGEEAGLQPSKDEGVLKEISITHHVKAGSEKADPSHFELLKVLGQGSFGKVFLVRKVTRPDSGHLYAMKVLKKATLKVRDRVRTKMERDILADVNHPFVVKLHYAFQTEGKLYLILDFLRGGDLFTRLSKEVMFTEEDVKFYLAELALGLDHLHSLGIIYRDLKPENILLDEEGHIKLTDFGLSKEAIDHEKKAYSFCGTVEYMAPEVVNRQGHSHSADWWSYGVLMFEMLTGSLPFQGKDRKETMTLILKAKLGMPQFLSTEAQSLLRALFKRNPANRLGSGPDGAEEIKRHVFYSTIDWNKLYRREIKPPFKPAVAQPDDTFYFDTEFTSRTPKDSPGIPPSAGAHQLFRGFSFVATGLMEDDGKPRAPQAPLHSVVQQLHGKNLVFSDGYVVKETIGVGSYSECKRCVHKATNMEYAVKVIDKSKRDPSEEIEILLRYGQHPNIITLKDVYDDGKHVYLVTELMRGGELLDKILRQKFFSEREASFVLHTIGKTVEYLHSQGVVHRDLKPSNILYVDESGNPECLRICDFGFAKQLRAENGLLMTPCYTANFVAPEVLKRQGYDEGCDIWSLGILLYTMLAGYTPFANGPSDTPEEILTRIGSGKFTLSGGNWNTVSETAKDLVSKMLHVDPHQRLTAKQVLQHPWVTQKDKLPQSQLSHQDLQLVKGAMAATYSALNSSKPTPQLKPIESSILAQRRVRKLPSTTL
T1 sequence (Q14289 whole entry): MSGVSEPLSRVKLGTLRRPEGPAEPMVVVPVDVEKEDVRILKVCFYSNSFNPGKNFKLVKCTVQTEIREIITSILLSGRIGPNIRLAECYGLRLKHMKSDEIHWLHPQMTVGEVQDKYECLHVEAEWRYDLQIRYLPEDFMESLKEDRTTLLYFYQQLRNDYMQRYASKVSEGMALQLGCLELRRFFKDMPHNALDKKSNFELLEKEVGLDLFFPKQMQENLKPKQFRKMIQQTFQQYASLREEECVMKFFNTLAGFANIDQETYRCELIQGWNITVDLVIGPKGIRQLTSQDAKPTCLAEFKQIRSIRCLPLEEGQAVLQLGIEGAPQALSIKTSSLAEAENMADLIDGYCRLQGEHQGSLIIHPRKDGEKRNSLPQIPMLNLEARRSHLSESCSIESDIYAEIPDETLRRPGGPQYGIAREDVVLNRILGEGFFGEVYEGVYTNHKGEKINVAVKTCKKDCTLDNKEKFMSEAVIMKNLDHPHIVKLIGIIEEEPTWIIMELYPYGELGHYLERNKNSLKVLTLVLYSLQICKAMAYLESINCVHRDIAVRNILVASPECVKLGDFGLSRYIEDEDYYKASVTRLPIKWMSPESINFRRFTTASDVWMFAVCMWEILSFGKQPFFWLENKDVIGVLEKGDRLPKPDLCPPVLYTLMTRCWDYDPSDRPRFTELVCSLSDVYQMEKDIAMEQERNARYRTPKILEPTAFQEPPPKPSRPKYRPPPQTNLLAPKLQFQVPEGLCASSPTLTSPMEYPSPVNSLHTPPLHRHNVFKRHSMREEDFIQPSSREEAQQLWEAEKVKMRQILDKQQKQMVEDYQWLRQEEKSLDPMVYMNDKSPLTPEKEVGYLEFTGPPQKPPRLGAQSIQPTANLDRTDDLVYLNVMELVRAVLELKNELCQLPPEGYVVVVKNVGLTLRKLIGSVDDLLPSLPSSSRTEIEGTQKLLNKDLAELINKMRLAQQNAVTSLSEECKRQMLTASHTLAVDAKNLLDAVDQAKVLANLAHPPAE

O=c1[nH]ccc2cc(F)c(NS(=O)(=O)c3ccc(N4CC[C@@H](O)C4)s3)cc12 [LSN3213128, N-(6-Fluoro-1-oxo-1,2-dihydroisoquinolin-7-yl)-5-[(3R)-3-hydroxypyrrolidin-1-yl]thiophene-2-sulfonamide]
inhibition at 0.2 µM (PYK2; @ 0.2 uM): -25.1%
inhibition at 2 µM (PYK2; @ 2 uM): -1.17%
inhibition at 20 µM (PYK2; @ 20 uM): 16.5%
inhibition at 0.2 µM (FGFR3; @ 0.2 uM): 3.62%
inhibition at 2 µM (FGFR3; @ 2 uM): 13.2%
inhibition at 20 µM (FGFR3; @ 20 uM): 47%
anti-proliferative effect on supplementation with hypoxanthine (MDA-MB-231met2; 32 μM hypoxanthine): completely abrogated
GI50 (MDA-MB-231met2; Homo sapiens, RPMI media, Alamar Blue): 88 nM
GI50 (SW620 (colon); SW-620, RPMI media, read-out: Alamar Blue GI50 Regular folate): 3910 ± 3240 nM
GI50 (SW620 (colon); SW-620, low folate RPMI media, read-out: Alamar Blue GI50 Low folate): 8.8 ± 1.6 nM
GI50 (A101D (melenoma); [1]): 3290 nM
GI50 (A101D (melenoma); [2]): 2.9 nM
GI50 (NCI-H1299; [1]): 1590 nM
GI50 (NCI-H1299; [2]): 4.8 nM
GI50 (NCI-H1155 (lung); [1]): 729 ± 215 nM
GI50 (NCI-H1155 (lung); [2]): 4.9 nM
GI50 (NCI-H1993 (lung); [1]): 2680 ± 2540 nM
GI50 (NCI-H1993 (lung); [2]): 3 ± 2.7 nM
GI50 (A549 (lung)): 6 nM
GI50 (NCI-H1437 (lung); [1]): 1880 ± 894 nM
GI50 (NCI-H1437 (lung); [2]): 0.73 nM
GI50 (MDA-MB-231 (mammary); [1]): 85 ± 42 nM
GI50 (MDA-MB-231 (mammary); [2]): 0.49 nM
GI50 (SNU-16 (gastric); [1]): 1590 ± 1270 nM
GI50 (SNU-16 (gastric); [2]): 1.2 ± 1.2 nM
GI50 (MIA PaCa-2 (pancreas); [1]): 4870 ± 4200 nM
GI50 (MIA PaCa-2 (pancreas); [2]): 1.6 ± 1 nM
GI50 (HCT 116 (colon); [1]): 2810 ± 1220 nM
GI50 (HCT 116 (colon); [2]): 2.2 ± 2.1 nM
inhibition at 0.2 µM (PDK1; @ 0.2 uM): 14.1%
inhibition at 2 µM (PDK1; @ 2 uM): 15.8%
inhibition at 20 µM (PDK1; @ 20 uM): 26.8%
tumor dUMP levels (NCI-H460 xenografts; low folate chow, 4 h, up to 60 mg/kg): unchanged
dose at which tumor ZMP response appears to saturate (NCI-H460 xenografts; nude mice on low folate chow, 4 h post PO dose): 1 mg/kg
inhibition at 0.2 µM (RSK1; @ 0.2 uM): 0.638%
inhibition at 2 µM (RSK1; @ 2 uM): 8.18%
inhibition at 20 µM (RSK1; @ 20 uM): 11.4%
